Test results taken from patent US20170050957A1, “4-AMINO-6-(HETEROCYCLIC)PICOLINATES AND 6-AMINO-2-(HETEROCYCLIC)PYRIMIDINE-4-CARBOXYLATES AND THEIR USE AS HERBICIDES” (Dow AgroSciences LLC, priority 2013, published 2017).
Read-outs that look alike come from different tables or passages of the source. One block for each compound: values may come before it.

Key:
[1] = tested on: Key Broadleaf Weed and Crop Species; assay: Post-emergent Test II herbicidal activity (Table 15); type: in vivo; settings: post-emergence, 336 h, 14 d; for pest or weed control at 35 g/ha: 35 g ai/ha; for pest or weed control at 70 g/ha: 70 g ai/ha; for pest or weed control at 140 g/ha: 140 g ai/ha
How it was run: (§1)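 Post-emergence spray; seedlings 7-21 d old, 1st-2nd true leaf; 187 L/ha; serial rates 1×-1/16×; solvent blank controls; subirrigated; visual % injury at 14 d.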

[2] = tested on: Key Grass and Sedge Weeds as well as Grass Crops; assay: Post-emergent Test II herbicidal activity (Table 16); type: in vivo; settings: post-emergence, 336 h; for pest or weed control at 35 g/ha: 35 g ai/ha; for pest or weed control at 70 g/ha: 70 g ai/ha; for pest or weed control at 140 g/ha: 140 g ai/ha
How it was run: as §1

[3] = Abutilon theophrasti, velvetleaf (Abutilon theophrasti), read-out: Visual Growth Reduction (%) 14 Days After Application, ABUTH
[4] = Amaranthus retroflexus, redroot pigweed (Amaranthus retroflexus), read-out: Visual Growth Reduction (%) 14 Days After Application, AMARE
[5] = Brassica napus, oilseed rape, canola (Brassica napus), read-out: Visual Growth Reduction (%) 14 Days After Application, BRSNN
[6] = Chenopodium album, lambsquarters (Chenopodium album), read-out: Visual Growth Reduction (%) 14 Days After Application, CHEAL
[7] = Euphorbia heterophylla, wild poinsettia (Euphorbia heterophylla), read-out: Visual Growth Reduction (%) 14 Days After Application, EPHHL
[8] = Helianthus annuus, sunflower (Helianthus annuus), read-out: Visual Growth Reduction (%) 14 Days After Application, HELAN
[9] = Cyperus esculentus, yellow nutsedge (Cyperus esculentus), 14 days after application, read-out: Visual Growth Reduction (%) 14 Days After Application CYPES
[10] = Echinochloa crus-galli, barnyardgrass (Echinochloa crus-galli), 14 days after application, read-out: Visual Growth Reduction (%) 14 Days After Application ECHCG
[11] = Oryza sativa, rice (Oryza sativa), 14 days after application, read-out: Visual Growth Reduction (%) 14 Days After Application ORYSA
[12] = Setaria faberi, giant foxtail (Setaria faberi), 14 days after application, read-out: Visual Growth Reduction (%) 14 Days After Application SETFA
[13] = Triticum aestivum, wheat, spring (Triticum aestivum), 14 days after application, read-out: Visual Growth Reduction (%) 14 Days After Application TRZAS
[14] = Zea mays, maize, corn (Zea mays), 14 days after application, read-out: Visual Growth Reduction (%) 14 Days After Application ZEAMX
[15] = Cyperus esculentus, yellow nutsedge (Cyperus esculentus), 14 d, read-out: Visual Growth Reduction (%) 14 Days After Application, CYPES
[16] = Echinochloa crus-galli, barnyardgrass (Echinochloa crus-galli), 14 d, read-out: Visual Growth Reduction (%) 14 Days After Application, ECHCG
[17] = Oryza sativa, rice (Oryza sativa), 14 d, read-out: Visual Growth Reduction (%) 14 Days After Application, ORYSA
[18] = Setaria faberi, giant foxtail (Setaria faberi), 14 d, read-out: Visual Growth Reduction (%) 14 Days After Application, SETFA
[19] = Triticum aestivum, wheat, spring (Triticum aestivum), 14 d, read-out: Visual Growth Reduction (%) 14 Days After Application, TRZAS
[20] = Zea mays, maize, corn (Zea mays), 14 d, read-out: Visual Growth Reduction (%) 14 Days After Application, ZEAMX

- melting point: 157 to 162 °C
SMILES: Cc1c(-c2ccc3ccsc3c2)nc(C(=O)O)c(Cl)c1N [Compound 3.19]
- pest or weed control at 35 g/ha [1, 3]: 0 to 29%
- pest or weed control at 70 g/ha [1, 3]: 0 to 29%
- pest or weed control at 140 g/ha [1, 3]: 60 to 74%
- pest or weed control at 35 g/ha [1, 4]: 60 to 74%
- pest or weed control at 70 g/ha [1, 4]: 95 to 100%
- pest or weed control at 140 g/ha [1, 4]: 75 to 84%
- pest or weed control at 35 g/ha [1, 5]: 0 to 29%
- pest or weed control at 70 g/ha [1, 5]: 0 to 29%
- pest or weed control at 140 g/ha [1, 5]: 0 to 29%
- pest or weed control at 35 g/ha [1, 6]: 60 to 74%
- pest or weed control at 70 g/ha [1, 6]: 60 to 74%
- pest or weed control at 140 g/ha [1, 6]: 75 to 84%
- pest or weed control at 35 g/ha [1, 7]: 0 to 29%
- pest or weed control at 70 g/ha [1, 7]: 0 to 29%
- pest or weed control at 140 g/ha [1, 7]: 0 to 29%
- pest or weed control at 35 g/ha [1, 8]: 85 to 94%
- pest or weed control at 70 g/ha [1, 8]: 85 to 94%
- pest or weed control at 140 g/ha [1, 8]: 85 to 94%
- pest or weed control at 35 g/ha [2, 9]: 0 to 29%
- pest or weed control at 70 g/ha [2, 9]: 0 to 29%
- pest or weed control at 140 g/ha [2, 9]: 0 to 29%
- pest or weed control at 35 g/ha [2, 10]: 0 to 29%
- pest or weed control at 70 g/ha [2, 10]: 0 to 29%
- pest or weed control at 140 g/ha [2, 10]: 0 to 29%
- pest or weed control at 35 g/ha [2, 11]: 0 to 29%
- pest or weed control at 70 g/ha [2, 11]: 0 to 29%
- pest or weed control at 140 g/ha [2, 11]: 0 to 29%
- pest or weed control at 35 g/ha [2, 12]: 0 to 29%
- pest or weed control at 70 g/ha [2, 12]: 0 to 29%
- pest or weed control at 140 g/ha [2, 12]: 0 to 29%
- pest or weed control at 35 g/ha [2, 13]: 0 to 29%
- pest or weed control at 70 g/ha [2, 13]: 0 to 29%
- pest or weed control at 140 g/ha [2, 13]: 0 to 29%
- pest or weed control at 35 g/ha [2, 14]: 0 to 29%
- pest or weed control at 70 g/ha [2, 14]: 0 to 29%
- pest or weed control at 140 g/ha [2, 14]: 0 to 29%

- melting point: 178 °C
SMILES: COC(=O)c1nc(-c2ccc(Cl)c3ccoc23)nc(N)c1OC [Compound 2.26]
- pest or weed control at 35 g/ha [1, 3]: 45 to 59%
- pest or weed control at 70 g/ha [1, 3]: 60 to 74%
- pest or weed control at 140 g/ha [1, 3]: 60 to 74%
- pest or weed control at 35 g/ha [1, 4]: 95 to 100%
- pest or weed control at 70 g/ha [1, 4]: 95 to 100%
- pest or weed control at 140 g/ha [1, 4]: 95 to 100%
- pest or weed control at 35 g/ha [1, 5]: 45 to 59%
- pest or weed control at 70 g/ha [1, 5]: 60 to 74%
- pest or weed control at 140 g/ha [1, 5]: 60 to 74%
- pest or weed control at 35 g/ha [1, 6]: 95 to 100%
- pest or weed control at 70 g/ha [1, 6]: 95 to 100%
- pest or weed control at 140 g/ha [1, 6]: 95 to 100%
- pest or weed control at 35 g/ha [1, 7]: 45 to 59%
- pest or weed control at 70 g/ha [1, 7]: 60 to 74%
- pest or weed control at 140 g/ha [1, 7]: 75 to 84%
- pest or weed control at 35 g/ha [1, 8]: 75 to 84%
- pest or weed control at 70 g/ha [1, 8]: 95 to 100%
- pest or weed control at 140 g/ha [1, 8]: 95 to 100%
- pest or weed control at 35 g/ha [2, 15]: 0 to 29%
- pest or weed control at 70 g/ha [2, 15]: 0 to 29%
- pest or weed control at 140 g/ha [2, 15]: 0 to 29%
- pest or weed control at 35 g/ha [2, 16]: 0 to 29%
- pest or weed control at 70 g/ha [2, 16]: 0 to 29%
- pest or weed control at 140 g/ha [2, 16]: 0 to 29%
- pest or weed control at 35 g/ha [2, 17]: 0 to 29%
- pest or weed control at 70 g/ha [2, 17]: 0 to 29%
- pest or weed control at 140 g/ha [2, 17]: 0 to 29%
- pest or weed control at 35 g/ha [2, 18]: 0 to 29%
- pest or weed control at 70 g/ha [2, 18]: 0 to 29%
- pest or weed control at 140 g/ha [2, 18]: 0 to 29%
- pest or weed control at 35 g/ha [2, 19]: 0 to 29%
- pest or weed control at 70 g/ha [2, 19]: 0 to 29%
- pest or weed control at 140 g/ha [2, 19]: 0 to 29%
- pest or weed control at 35 g/ha [2, 20]: 0 to 29%
- pest or weed control at 70 g/ha [2, 20]: 0 to 29%
- pest or weed control at 140 g/ha [2, 20]: 0 to 29%
